# Assay results published in ChEMBL document CHEMBL5150017, “Mechanism of Action and Structure-Activity Relationship of α-Conotoxin Mr1.1 at the Human α9α10 Nicotinic Acetylcholine Receptor” (J Med Chem, 2022).
# Calls of active or inactive are those of the source. No cut-off for these calls is given here.
# Tested on: Mus musculus
# Test: Analgesic activity in chronic constriction injury-induced mechanical pain mouse model assessed as increase in paw withdrawal latency at 60 mg/kg measured after 1 to 7 hrs
# Assay type: functional, organism-based
# Details: time 1-7 hrs
smiles,measurement,value
NCC1(CC(=O)O)CCCCC1,Activity,Active
